# Measured values as given in ChEMBL document CHEMBL3885861, “Open TG-GATES”.
# Species: Rattus norvegicus
# Experiment: Open TG-GATES - Regimen: Daily Repeat
# Assay type: toxicity, organism-based, Sprague-Dawley
# Set-up: regimen Daily Repeat, gender Male, age 6 weeks
# Conditions: in vivo, po, 15 mg/kg, route gavage, dose level Low; for APTT / Bas / Eos / Fbg / Hb / Ht / Lym / MCHC / MCV / Mono / Neu / PT / Plat / RBC / Ret / WBC: tissue Blood; for KIDNEY_L / KIDNEY_R / KIDNEY_TOTAL: tissue Kidney; for LIVER: tissue Liver; for ALP / ALT / AST / BUN / CRE / Ca / Cl / DBIL / GLC / IP / K / LDH / Na / PL / RALB / TBIL / TC / TG / TP / gamma-GTP: tissue Plasma
compound,measurement,setting,value
C1CCC(C(CC2CCCCN2)C2CCCCC2)CC1 (centres undefined) [PERHEXILINE],TERMINAL_BW,"72 h, time 3 day",221.1 g
same,APTT,"72 h, time 3 day",22 s
same,Bas,"72 h, time 3 day",0%
same,Eos,"72 h, time 3 day",0.8%
same,Fbg,"72 h, time 3 day",313.4 mg/dL
same,Hb,"72 h, time 3 day",13.4 g/dL
same,Ht,"72 h, time 3 day",39.5%
same,Lym,"72 h, time 3 day",82.4%
same,MCHC,"72 h, time 3 day",33.7%
same,MCV,"72 h, time 3 day",62.1 fL
same,Mono,"72 h, time 3 day",1.6%
same,Neu,"72 h, time 3 day",14.2%
same,PT,"72 h, time 3 day",16.6 s
same,Plat,"72 h, time 3 day",127.5 x10_4/uL
same,RBC,"72 h, time 3 day",637.8 x10_4/ul
same,Ret,"72 h, time 3 day",5.8%
same,WBC,"72 h, time 3 day",90.6 x10_2/uL
same,KIDNEY_L,"72 h, time 3 day",1 g
same,KIDNEY_R,"72 h, time 3 day",1 g
same,KIDNEY_TOTAL,"72 h, time 3 day",2 g
same,LIVER,"72 h, time 3 day",10.6 g
same,ALP,"72 h, time 3 day",1691.8 IU/L
same,ALT,"72 h, time 3 day",40.6 IU/L
same,AST,"72 h, time 3 day",69.8 IU/L
same,BUN,"72 h, time 3 day",16.2 mg/dL
same,CRE,"72 h, time 3 day",0.2 mg/dL
same,Ca,"72 h, time 3 day",10.8 mg/dL
same,Cl,"72 h, time 3 day",106.4 meq/L
same,DBIL,"72 h, time 3 day",0 mg/dL
same,GLC,"72 h, time 3 day",186.2 mg/dL
same,IP,"72 h, time 3 day",6.6 mg/dL
same,K,"72 h, time 3 day",4.2 meq/L
same,LDH,"72 h, time 3 day",253.2 IU/L
same,Na,"72 h, time 3 day",142.6 meq/L
same,PL,"72 h, time 3 day",150 mg/dL
same,RALB,"72 h, time 3 day",3.1 g/dL
same,TBIL,"72 h, time 3 day",0.008 mg/dL
same,TC,"72 h, time 3 day",74 mg/dL
same,TG,"72 h, time 3 day",131 mg/dL
same,TP,"72 h, time 3 day",5.7 g/dL
same,gamma-GTP,"72 h, time 3 day",1 IU/L
same,TERMINAL_BW,"[…], time 7 day",248.3 g
same,TERMINAL_BW,"[…], time 14 day",309.8 g
same,TERMINAL_BW,"[…], time 28 day",362.5 g
same,APTT,"[…], time 7 day",22.8 s
same,Bas,"[…], time 7 day",0%
same,Eos,"[…], time 7 day",1%
same,Fbg,"[…], time 7 day",313.2 mg/dL
same,Hb,"[…], time 7 day",13.6 g/dL
same,Ht,"[…], time 7 day",39.9%
same,Lym,"[…], time 7 day",79.4%
same,MCHC,"[…], time 7 day",34%
same,MCV,"[…], time 7 day",62.5 fL
same,Mono,"[…], time 7 day",2.2%
same,Neu,"[…], time 7 day",16.6%
same,PT,"[…], time 7 day",16 s
same,Plat,"[…], time 7 day",115.3 x10_4/uL
same,RBC,"[…], time 7 day",639.4 x10_4/ul
same,Ret,"[…], time 7 day",5.3%
same,WBC,"[…], time 7 day",110.7 x10_2/uL
same,APTT,"[…], time 14 day",23.1 s
same,Bas,"[…], time 14 day",0%
same,Eos,"[…], time 14 day",0.4%
same,Fbg,"[…], time 14 day",320.2 mg/dL
same,Hb,"[…], time 14 day",14.9 g/dL
same,Ht,"[…], time 14 day",42.6%
same,Lym,"[…], time 14 day",82.8%
same,MCHC,"[…], time 14 day",35%
same,MCV,"[…], time 14 day",60.8 fL
same,Mono,"[…], time 14 day",1.6%
same,Neu,"[…], time 14 day",13.8%
same,PT,"[…], time 14 day",16.1 s
same,Plat,"[…], time 14 day",112 x10_4/uL
same,RBC,"[…], time 14 day",702.2 x10_4/ul
same,Ret,"[…], time 14 day",3.7%
same,WBC,"[…], time 14 day",125.7 x10_2/uL
same,APTT,"[…], time 28 day",22.8 s
same,Bas,"[…], time 28 day",0%
same,Eos,"[…], time 28 day",1%
same,Fbg,"[…], time 28 day",313.2 mg/dL
same,Hb,"[…], time 28 day",13.6 g/dL
same,Ht,"[…], time 28 day",39.9%
same,Lym,"[…], time 28 day",79.4%
same,MCHC,"[…], time 28 day",34%
same,MCV,"[…], time 28 day",62.5 fL
same,Mono,"[…], time 28 day",2.2%
same,Neu,"[…], time 28 day",16.6%
same,PT,"[…], time 28 day",16 s
same,Plat,"[…], time 28 day",115.3 x10_4/uL
same,RBC,"[…], time 28 day",639.4 x10_4/ul
same,Ret,"[…], time 28 day",5.3%
same,WBC,"[…], time 28 day",110.7 x10_2/uL
same,KIDNEY_L,"[…], time 7 day",1.1 g
same,KIDNEY_R,"[…], time 7 day",1.1 g
same,KIDNEY_TOTAL,"[…], time 7 day",2.1 g
same,KIDNEY_L,"[…], time 14 day",1.2 g
same,KIDNEY_R,"[…], time 14 day",1.2 g
same,KIDNEY_TOTAL,"[…], time 14 day",2.4 g
same,KIDNEY_L,"[…], time 28 day",1.3 g
same,KIDNEY_R,"[…], time 28 day",1.3 g
same,KIDNEY_TOTAL,"[…], time 28 day",2.6 g
same,LIVER,"[…], time 7 day",12 g
same,LIVER,"[…], time 14 day",13 g
same,LIVER,"[…], time 28 day",14.5 g
same,ALP,"[…], time 7 day",1491.4 IU/L
same,ALT,"[…], time 7 day",41 IU/L
same,AST,"[…], time 7 day",70.8 IU/L
same,BUN,"[…], time 7 day",17 mg/dL
same,CRE,"[…], time 7 day",0.2 mg/dL
same,Ca,"[…], time 7 day",10.3 mg/dL
same,Cl,"[…], time 7 day",106.8 meq/L
same,DBIL,"[…], time 7 day",0 mg/dL
same,GLC,"[…], time 7 day",199.8 mg/dL
same,IP,"[…], time 7 day",7.2 mg/dL
same,K,"[…], time 7 day",4.2 meq/L
same,LDH,"[…], time 7 day",213.8 IU/L
same,Na,"[…], time 7 day",143.6 meq/L
same,PL,"[…], time 7 day",157.8 mg/dL
same,RALB,"[…], time 7 day",3 g/dL
same,TBIL,"[…], time 7 day",0.004 mg/dL
same,TC,"[…], time 7 day",75 mg/dL
same,TG,"[…], time 7 day",162.4 mg/dL
same,TP,"[…], time 7 day",5.7 g/dL
same,gamma-GTP,"[…], time 7 day",1.6 IU/L
same,ALP,"[…], time 14 day",1618.8 IU/L
same,ALT,"[…], time 14 day",41.2 IU/L
same,AST,"[…], time 14 day",73.8 IU/L
same,BUN,"[…], time 14 day",18.6 mg/dL
same,CRE,"[…], time 14 day",0.2 mg/dL
same,Ca,"[…], time 14 day",10.5 mg/dL
same,Cl,"[…], time 14 day",107 meq/L
same,DBIL,"[…], time 14 day",0 mg/dL
same,GLC,"[…], time 14 day",191.8 mg/dL
same,IP,"[…], time 14 day",6.1 mg/dL
same,K,"[…], time 14 day",4.1 meq/L
same,LDH,"[…], time 14 day",207.4 IU/L
same,Na,"[…], time 14 day",143.8 meq/L
same,PL,"[…], time 14 day",145.4 mg/dL
same,RALB,"[…], time 14 day",3.2 g/dL
same,TBIL,"[…], time 14 day",0.004 mg/dL
same,TC,"[…], time 14 day",65.4 mg/dL
same,TG,"[…], time 14 day",177.2 mg/dL
same,TP,"[…], time 14 day",6 g/dL
same,gamma-GTP,"[…], time 14 day",1.6 IU/L
same,ALP,"[…], time 28 day",1153.2 IU/L
same,ALT,"[…], time 28 day",39.4 IU/L
same,AST,"[…], time 28 day",63.6 IU/L
same,BUN,"[…], time 28 day",18.2 mg/dL
same,CRE,"[…], time 28 day",0.2 mg/dL
same,Ca,"[…], time 28 day",10.3 mg/dL
same,Cl,"[…], time 28 day",108 meq/L
same,DBIL,"[…], time 28 day",0.002 mg/dL
same,GLC,"[…], time 28 day",191 mg/dL
same,IP,"[…], time 28 day",6.4 mg/dL
same,K,"[…], time 28 day",4 meq/L
same,LDH,"[…], time 28 day",156 IU/L
same,Na,"[…], time 28 day",144.4 meq/L
same,PL,"[…], time 28 day",138.6 mg/dL
same,RALB,"[…], time 28 day",3.2 g/dL
same,TBIL,"[…], time 28 day",0.012 mg/dL
same,TC,"[…], time 28 day",63.2 mg/dL
same,TG,"[…], time 28 day",130.2 mg/dL
same,TP,"[…], time 28 day",6.2 g/dL
same,gamma-GTP,"[…], time 28 day",1.2 IU/L
